# Results from ChEMBL document CHEMBL2029218, “Structure-based design of novel class II c-Met inhibitors: 2. SAR and kinase selectivity profiles of the pyrazolone series” (J Med Chem, 2012).
# What was measured:
# [1] = molecular target: Insulin-like growth factor 1 receptor (Homo sapiens, UniProt P08069); experiment: Inhibition of IGF1R by HTRF assay
# [2] = molecular target: Vascular endothelial growth factor receptor 2 (Homo sapiens, UniProt P35968); experiment: Inhibition of VEGFR2 by HTRF assay
# [3] = molecular target: Hepatocyte growth factor receptor (Homo sapiens, UniProt P08581)
# Description: Inhibition of c-Met by HTRF assay
# [4] = molecular target: Mitogen-activated protein kinase 14 (Homo sapiens, UniProt Q16539); experiment: Inhibition of p38alpha
# [5] = molecular target: Ribosomal protein S6 kinase beta-1 (Homo sapiens, UniProt P23443); experiment: Inhibition of p70S6K
# [6] = molecular target: Tyrosine-protein kinase JAK2 (Homo sapiens, UniProt O60674); experiment: Inhibition of JAK2
# [7] = molecular target: Fibroblast growth factor receptor 1 (Homo sapiens, UniProt P11362); experiment: Inhibition of FGFRK
# [8] = molecular target: Macrophage-stimulating protein receptor (Homo sapiens, UniProt Q04912); experiment: Inhibition of RON by HTRF assay
# [9] = molecular target: RAC-alpha serine/threonine-protein kinase (Homo sapiens, UniProt P31749); experiment: Inhibition of PKBalpha
# [10] = molecular target: Serine/threonine-protein kinase pim-1 (Homo sapiens, UniProt P11309); experiment: Inhibition of PIM1
# [11] = molecular target: RAC-beta serine/threonine-protein kinase (Homo sapiens, UniProt P31751); experiment: Inhibition of PKBbeta
# [12] = molecular target: Mast/stem cell growth factor receptor Kit (Homo sapiens, UniProt P10721); experiment: Inhibition of c-KIT
# [13] = molecular target: Proto-oncogene tyrosine-protein kinase receptor Ret (Homo sapiens, UniProt P07949); experiment: Inhibition of RET
# [14] = molecular target: Mitogen-activated protein kinase 3 (Homo sapiens, UniProt P27361); experiment: Inhibition of ERK1
# [15] = molecular target: Serine/threonine-protein kinase pim-2 (Homo sapiens, UniProt Q9P1W9); experiment: Inhibition of PIM2
# [16] = molecular target: Cyclin-dependent kinase 5/CDK5 activator 1 (Homo sapiens, UniProt Q00535)
# [17] = molecular target: Tyrosine-protein kinase JAK1 (Homo sapiens, UniProt P23458); experiment: Inhibition of JAK1
# [18] = molecular target: Mitogen-activated protein kinase 9 (Homo sapiens, UniProt P45984); experiment: Inhibition of JNK2
# [19] = molecular target: Ribosomal protein S6 kinase alpha-5 (Homo sapiens, UniProt O75582); experiment: Inhibition of MSK1
# [20] = molecular target: cAMP-dependent protein kinase catalytic subunit alpha (Homo sapiens, UniProt P17612); experiment: Inhibition of PKAalpha
# Angiopoietin-1 receptor = Angiopoietin-1 receptor (Homo sapiens, UniProt Q02763); experiment: Inhibition of TIE2
# Aurora kinase A = Aurora kinase A (Homo sapiens, UniProt O14965); experiment: Inhibition of aurora-1
# [21] = molecular target: Tyrosine-protein kinase JAK3 (Homo sapiens, UniProt P52333); experiment: Inhibition of JAK3
smiles,measurement,setting,value
COc1ccc2c(Oc3ccc(NC(=O)c4c(C)n(CCO)n(-c5ccccc5)c4=O)nc3)ccnc2c1,Ki,[1],1100 nM
COc1ccc2c(Oc3ccc(NC(=O)c4c(C5CCCO5)n(C)n(-c5ccccc5)c4=O)cc3F)ccnc2c1 (racemic),Ki,[1],190 nM
COc1ccc2c(Oc3ccc(NC(=O)c4c(C(C)(C)N)n(C)n(-c5ccccc5)c4=O)cc3F)ccnc2c1,Ki,[1],3100 nM
COc1ccc2c(Oc3ccc(NC(=O)c4c(-c5ccccn5)n(C)n(-c5ccccc5)c4=O)nc3)ccnc2c1,Ki,[2],1380 nM
same,Ki,[1],18.5 nM
COc1ccc2c(Oc3ccc(NC(=O)c4c(C)n(C)n(-c5ccccc5)c4=O)cc3F)ccnc2c1,Ki,[1],178 nM
COc1ccc2c(Oc3ccc(NC(=O)c4c(-c5cc(C)on5)n(C)n(-c5ccccc5)c4=O)nc3)ccnc2c1,Ki,[2],501 nM
same,Ki,[1],30.9 nM
COc1ccc2c(Oc3ccc(NC(=O)c4c(C)n(CC(C)(C)O)n(-c5ccccc5)c4=O)nc3)ccnc2c1,IC50,[3],10 nM
same,Ki,[3],1 nM
same,IC50,[4],100000 nM
same,IC50,[5],25000 nM
same,IC50,[6],25000 nM
same,IC50,[7],25000 nM
same,IC50,[8],10 nM
same,IC50,[9],10000 nM
same,IC50,[10],25000 nM
same,IC50,[11],25000 nM
same,IC50,[12],10000 nM
same,IC50,[13],25000 nM
same,IC50,[14],100000 nM
same,IC50,[15],25000 nM
same,IC50,[16],100000 nM
same,IC50,[17],25000 nM
same,IC50,[18],100000 nM
same,IC50,[19],100000 nM
same,IC50,[20],100000 nM
COCCn1c(C)c(C(=O)Nc2ccc(Oc3ccnc4cc(OC)ccc34)cn2)c(=O)n1-c1ccccc1,Ki,[1],2890 nM
COc1ccc2c(Oc3ccc(NC(=O)c4c(C)n(CCN)n(-c5ccccc5)c4=O)cc3F)ccnc2c1,Ki,[1],872 nM
COc1ccc2c(Oc3ccc(NC(=O)c4c(-c5csc(C)n5)n(C)n(-c5ccccc5)c4=O)nc3)ccnc2c1,Ki,[2],588 nM
same,Ki,[1],24.8 nM
CCCn1c(C)c(C(=O)Nc2ccc(Oc3ccnc4cc(OC)ccc34)c(F)c2)c(=O)n1-c1ccccc1,Ki,[1],419 nM
C=C(C)Cn1c(C)c(C(=O)Nc2ccc(Oc3ccnc4cc(OC)ccc34)c(F)c2)c(=O)n1-c1ccccc1,Ki,[1],249 nM
CCn1c(C)c(C(=O)Nc2ccc(Oc3ccnc4cc(OC)ccc34)cn2)c(=O)n1-c1ccccc1,Ki,[1],708 nM
COc1cc2nccc(Oc3ccc(NC(=O)c4c(C)n(C)n(-c5ccccc5)c4=O)c(Cl)c3)c2cc1OC,Ki,[2],35.9 nM
same,Ki,[1],26.5 nM
COc1ccc2c(Oc3ccc(NC(=O)c4c(CN5CCCC5)n(C)n(-c5ccccc5)c4=O)cc3F)ccnc2c1,Ki,[1],1800 nM
CCCn1c(C)c(C(=O)Nc2ccc(Oc3ccnc4cc(OC)ccc34)cn2)c(=O)n1-c1ccccc1,Ki,[1],730 nM
COc1ccc2c(Oc3ccc(NC(=O)c4c(C)n(CC(C)C)n(-c5ccccc5)c4=O)cc3F)ccnc2c1,Ki,[1],915 nM
COc1ccc2c(Oc3ccc(NC(=O)c4c(C)n(CC5CNC(=O)O5)n(-c5ccccc5)c4=O)cc3F)ccnc2c1 (stereo unspecified),Ki,[1],1660 nM
COc1ccc2c(Oc3ccc(NC(=O)c4c(C5CCOC5)n(C)n(-c5ccccc5)c4=O)cc3F)ccnc2c1 (racemic),Ki,[1],250 nM
CC[C@H](O)Cn1c(C)c(C(=O)Nc2ccc(Oc3ccnc4cc(OC)ccc34)c(F)c2)c(=O)n1-c1ccccc1,Ki,[1],575 nM
COc1ccc2c(Oc3ccc(NC(=O)c4c(C)n(C[C@H](C)O)n(-c5ccccc5)c4=O)cc3F)ccnc2c1,Ki,[1],695 nM
CCc1cc2c(Oc3ccc(NC(=O)c4c(C)n(C)n(-c5ccccc5)c4=O)cc3F)ccnc2cc1OC,Ki,[1],70.2 nM
COc1cc2nccc(Oc3ccc(NC(=O)c4c(C)n(C)n(-c5ccccc5)c4=O)cc3F)c2cc1OC,IC50,[4],1000 nM
same,IC50,[5],1000 nM
same,IC50,[6],1000 nM
same,IC50,[7],1000 nM
same,IC50,[9],10000 nM
same,IC50,[10],25000 nM
same,IC50,[11],25000 nM
same,IC50,Angiopoietin-1 receptor,100 nM
same,IC50,[12],100 nM
same,IC50,[14],25000 nM
same,IC50,[15],25000 nM
same,IC50,Aurora kinase A,1000 nM
same,IC50,[21],10000 nM
same,IC50,[17],10000 nM
same,IC50,[19],10000 nM
COc1ccc2c(Oc3ccc(NC(=O)c4c(C)n(CC(C)O)n(-c5ccccc5)c4=O)cc3F)ccnc2c1 (racemic),Ki,[1],1330 nM
COc1ccc2c(Oc3ccc(NC(=O)c4c(CN)n(C)n(-c5ccccc5)c4=O)cc3F)ccnc2c1,Ki,[2],541 nM
same,Ki,[1],928 nM
COc1ccc2c(Oc3ccc(NC(=O)c4c(CN5CCCC5)n(C)n(-c5ccccc5)c4=O)nc3)ccnc2c1,Ki,[1],887 nM
COc1ccc2c(Oc3cnc(NC(=O)c4c(C)n(C)n(-c5ccccc5)c4=O)nc3)ccnc2c1,Ki,[3],16.7 nM
same,Ki,[2],1630 nM
same,Ki,[1],217 nM
COc1ccc2c(Oc3ccc(NC(=O)c4c(C)n(C)n(-c5ccccc5)c4=O)c(OC)c3)ccnc2c1,Ki,[2],702 nM
same,Ki,[1],93.6 nM
COc1ccc2c(Oc3ccc(NC(=O)c4c(CNC(=O)OC(C)(C)C)n(C)n(-c5ccccc5)c4=O)cc3F)ccnc2c1,Ki,[1],> 6600 nM
COc1ccc2c(Oc3ccc(NC(=O)c4c(C)n(CC(C)(C)O)n(-c5ccccc5)c4=O)cc3F)ccnc2c1,Ki,[1],887 nM
COc1ccc2c(Oc3ccc(NC(=O)c4c(-c5ccncc5)n(C)n(-c5ccccc5)c4=O)nc3)ccnc2c1,Ki,[2],> 6600 nM
same,Ki,[1],35.9 nM
COc1ccc2c(Oc3ccc(NC(=O)c4c(C)n(C)n(-c5ccccc5)c4=O)nc3)ccnc2c1,Ki,[1],618 nM
COc1cc2nccc(Oc3ccc(NC(=O)c4c(C)n(C)n(-c5ccccc5)c4=O)cc3F)c2cc1Br,Ki,[2],78.9 nM
same,Ki,[1],149 nM
CCN(C)Cc1c(C(=O)Nc2ccc(Oc3ccnc4cc(OC)ccc34)c(F)c2)c(=O)n(-c2ccccc2)n1C,Ki,[1],744 nM
COc1ccc2c(Oc3ccc(NC(=O)c4c(C5CCOCC5)n(C)n(-c5ccccc5)c4=O)nc3)ccnc2c1,Ki,[2],2720 nM
same,Ki,[1],42.7 nM
COc1ccc2c(Oc3ccc(NC(=O)c4c(C)n(C[C@@H](C)O)n(-c5ccccc5)c4=O)cc3F)ccnc2c1,Ki,[1],744 nM
COc1ccc2c(Oc3ccc(NC(=O)c4c(C5CCOCC5)n(C)n(-c5ccccc5)c4=O)cc3F)ccnc2c1,Ki,[1],144 nM
COc1ccc2c(Oc3ccc(NC(=O)c4c(C)n(CC(C)O)n(-c5ccccc5)c4=O)nc3)ccnc2c1 (stereo unspecified),Ki,[1],1290 nM
COc1ccc2c(Oc3ccc(NC(=O)c4c(-c5cnccn5)n(C)n(-c5ccccc5)c4=O)nc3)ccnc2c1,Ki,[2],4730 nM
same,Ki,[1],87.7 nM
CCn1c(C)c(C(=O)Nc2ccc(Oc3ccnc4cc(OC)ccc34)c(F)c2)c(=O)n1-c1ccccc1,Ki,[1],557 nM
COc1cc2nccc(Oc3ccc(NC(=O)c4c(C)n(C)n(-c5ccccc5)c4=O)nc3)c2cc1OC,Ki,[1],233 nM
COc1ccc2c(Oc3ccc(NC(=O)c4c(C)n(CC(O)CN)n(-c5ccccc5)c4=O)cc3F)ccnc2c1 (stereo unspecified),Ki,[1],104 nM
COc1ccc2c(Oc3ccc(NC(=O)c4c([C@@H]5CCCN5)n(C)n(-c5ccccc5)c4=O)cc3F)ccnc2c1,Ki,[2],2240 nM
same,Ki,[1],680 nM
COc1ccc2c(Oc3ccc(NC(=O)c4c(-c5cccnc5)n(C)n(-c5ccccc5)c4=O)nc3)ccnc2c1,Ki,[2],2830 nM
same,Ki,[1],27 nM
COc1cc2nccc(Oc3ccc(NC(=O)c4c(C)n(C)n(-c5ccccc5)c4=O)cn3)c2cc1OC,Ki,[1],1570 nM
COc1ccc2c(Oc3ccc(NC(=O)c4c(C)n(CCO)n(-c5ccccc5)c4=O)cc3F)ccnc2c1,Ki,[1],864 nM
COc1cc2nccc(Oc3ccc(NC(=O)c4c(C)n(C)n(-c5ccccc5)c4=O)cc3F)c2cc1C,Ki,[1],146 nM
COc1ccc2c(Oc3ccc(NC(=O)c4c(C)n(CC(O)C(C)C)n(-c5ccccc5)c4=O)cc3F)ccnc2c1 (stereo unspecified),Ki,[1],637 nM
COc1ccc2c(Oc3ccc(NC(=O)c4c([C@@H]5CCCN5)n(C)n(-c5ccccc5)c4=O)nc3)ccnc2c1,Ki,[2],> 6600 nM
same,Ki,[1],948 nM
